Source: patent publication US9808527B2, “Methods and compositions for treating HIV infections” (priority 2006, dated 2017)
Where two headings read alike, the source gives them in different places.

Tests used:
HIV-1LAI = assay: MTT assay, MT-2 cells exposed to HIV-1LAI (acute HIV-1 infection assay); assay type: cell-based; settings: for IC50: Human immunodeficiency virus 1, MT2, 168 h; for Selectivity Index: HIV-1LAI
Procedure: (§1) Drug susceptibility assay. The susceptibility of HIV-1LAI, HIV-2EHO, HIV-2ROD, to various drugs and the cytotoxicity of those drugs was determined by using the MTT assay. Briefly, MT-2 cells (2×10^4/mL) were exposed to 100 TCID50s (50% tissue culture infectious doses) of HIV-1LAI, HIV-2EHO, or HIV-2ROD in the presence or absence of various concentrations of drugs in 96-well microculture plates and were incubated at 37° C. for 7 days. After 100 μL of the medium was removed from each well, 3-(4,5-dimethylthiazol-2-yl)-2,5-diphenyltetrazolium bromide (MTT) solution (10 μL, 7.5 mg/mL in phosphate-buffered saline) was added to each well in the plate, followed by incubation at 37° C. for 4 hours. […] All assays were performed in duplicate or triplicate. To determine the sensitivity of HIV-1Ba-L, HIV-1ERS104 pre, and clinical multi-drug-resistant HIV-1 isolates and different subtypes of HIV-1 isolates to drugs, phytohemagglutinin-activated peripheral blood mononuclear cells (PHA-PBMs; 10^6/mL) were exposed to 50 TCID50 (50% tissue infectious dose) of each HIV-1 isolate and cultured in the presence or absence of various concentrations of drugs in 10-fold serial dilutions in 96-well microtiter culture plates. To determine the drug susceptibility of certain laboratory HIV-1 strains (HIV-1NL4-3), MT-4 cells were used as target cells. MT-4 cells (10^5/mL) were exposed to 100 TCID50 of wild type HIV-1NL4-3 and PI-resistant HIV-1NL4-3 in the presence or absence of various concentrations of drugs and were incubated at 37° C. On day 7 of culture, the supernatant was harvested and the amount of p24 Gag protein was determined by using a fully automated chemiluminescent enzyme immunoassay system (Lumipulse F; Fujirebio Inc., Tokyo, Japan) (22). […] All assays were performed in duplicate or triplicate.

[1] = test system: HIV-1ERS104pre (wild-type: X4); assay: p24 Gag production inhibition, PHA-PBMs, wild-type clinical isolate; assay type: cell-based
Procedure: as §1
(§2) The amino acid substitutions identified in the protease-encoding region of HIV-1ERS104pre, HIV-1TM, HIV-1MM, HIV-1JSL, HIV-1B, HIV-1C, HIV-1G compared to the consensus type B sequence cited from the Los Alamos database include L63P; L10I, K14R, R41K, M46L, I54V, L63P, A71V, V82A, L90M; I93L; L10I, K43T, M46L, I54V, L63P, A71V, V82A, L90M, Q92K; L10I, L24I, I33F, E35D, M36I, N37S, M46L, I54V, R57K, I62V, L63P, A71V, G73S, V82A; L10I, K14R, L33I, M36I, M46I, F53I, K55R, I62V, L63P, A71V, G73S, V82A, L90M, I93L; L10I, I15V, K20R, L24I, M36I, M46L, I54V, I62V, L63P, K70Q, V82A, L89M; and L10I, V11I, T12E, I15V, L19I, R41K, M46L, L63P, A71T, V82A, L90M, respectively. HIV-1ERS104pre served as a source of wild-type HIV-1. The IC50 values were determined by using PHA-PBMs as target cells and the inhibition of p24 Gag protein production by each drug was used as an endpoint. The numbers in parentheses represent the fold changes of IC50 values for each isolate compared to the IC50 values for wild-type HIV-1ERS104pre. All assays were conducted in duplicate or triplicate, and the data shown represent mean values (±1 standard deviations) derived from the results of three independent experiments.

HIV-1MDR/B (X4) = assay: microbe, parasite or virus in culture; assay type: cell-based; settings: for IC50: Human immunodeficiency virus 1, read-out: IC50 against HIV-1MDR/B (X4); for fold change of IC50, HIV-1MDR/B: compared to wild-type HIV-1ERS104pre
Procedure: as §1
(§3) HIV-1ERS104pre served as a source of wild-type HIV-1. The IC50 values were determined by using PHA-PBMs as target cells and the inhibition of p24 Gag protein production by each drug was used as an endpoint.

HIV-1MDR/C (X4) = assay: microbe, parasite or virus in culture; assay type: cell-based; settings: for IC50: Human immunodeficiency virus 1, read-out: IC50 against HIV-1MDR/C (X4); for fold change of IC50, HIV-1MDR/C: compared to wild-type HIV-1ERS104pre
Procedure: as §1, §3

HIV-1MDR/G (X4) = assay: microbe, parasite or virus in culture; assay type: cell-based; settings: for IC50: Human immunodeficiency virus 1, read-out: IC50 against HIV-1MDR/G (X4); for fold change of IC50, HIV-1MDR/G: compared to wild-type HIV-1ERS104pre
Procedure: as §1, §3

HIV-1MDR/JSL (R5) = assay: microbe, parasite or virus in culture; assay type: cell-based; settings: for IC50: Human immunodeficiency virus 1, read-out: IC50 against HIV-1MDR/JSL (R5); for fold change of IC50, HIV-1MDR/JSL: compared to wild-type HIV-1ERS104pre
Procedure: as §1, §3

HIV-1MDR/MM (R5) = assay: microbe, parasite or virus in culture; assay type: cell-based; settings: for IC50: Human immunodeficiency virus 1, read-out: IC50 against HIV-1MDR/MM (R5); for fold change of IC50, HIV-1MDR/MM: compared to wild-type HIV-1ERS104pre
Procedure: as §1, §3

HIV-1MDR/TM (X4) = assay: microbe, parasite or virus in culture; assay type: cell-based; settings: for IC50: Human immunodeficiency virus 1, read-out: IC50 against HIV-1MDR/TM (X4); for fold change of IC50, HIV-1MDR/TM: compared to wild-type HIV-1ERS104pre
Procedure: as §1, §3

92TH019 (E-R5) = assay: p24 Gag production inhibition, PHA-PBMs, subtype E isolate 92TH019; assay type: cell-based, HIV-1; settings: Human immunodeficiency virus 1, read-out: IC50 against 92TH019 (E-R5)
Procedure: as §1
The IC50 values were determined by using PHA-PBMs as target cells and the inhibition of p24 Gag protein production by each drug was used as an endpoint. All assays were conducted in duplicate, and the data shown represent mean values (±1 standard deviations) derived from the results of two or three independent experiments.

[2] = test system: multi-drug-resistant clinical HIV-1 variants; assay: p24 assay, PHA-PBMs, panel of multi-drug-resistant clinical HIV-1 isolates; assay type: cell-based; settings: Human immunodeficiency virus 1, read-out: IC50 against multi-drug-resistant clinical HIV-1 strains, PHA-PBMs, p24 production
Procedure: as §1, §2

[3] = MT-2 cells, 100 TCID50 of HIV-1LAI, MTT assay on day 7, read-out: IC50 against HIV-1LAI
[4] = Human immunodeficiency virus 1, PHA-PBMs, p24 Gag production, read-out: IC50 against HIV-1ERS104pre (wild-type: X4)
[5] = read-out: IC50 against HIV-1LAI, MT-2 cells, 100 TCID50 of HIV-1LAI, MTT assay on day 7
[6] = Human immunodeficiency virus 1, read-out: IC50 against HIV-1ERS104pre (wild-type: X4)

Row | SMILES | IC50 (HIV-1LAI; [3]) | IC50 [1, 4] | IC50 (HIV-1MDR/B (X4)) | IC50 (HIV-1MDR/C (X4)) | IC50 (HIV-1MDR/G (X4)) | IC50 (HIV-1MDR/JSL (R5)) | IC50 (HIV-1MDR/MM (R5)) | IC50 (HIV-1MDR/TM (X4)) | IC50 (92TH019 (E-R5)) | Selectivity Index (HIV-1LAI; MT-2 cells) | IC50 (HIV-1LAI; [5]) | IC50 [1, 6] | fold change of IC50, HIV-1MDR/B (HIV-1MDR/B (X4)) | fold change of IC50, HIV-1MDR/C (HIV-1MDR/C (X4)) | fold change of IC50, HIV-1MDR/G (HIV-1MDR/G (X4)) | fold change of IC50, HIV-1MDR/JSL (HIV-1MDR/JSL (R5)) | fold change of IC50, HIV-1MDR/MM (HIV-1MDR/MM (R5)) | fold change of IC50, HIV-1MDR/TM (HIV-1MDR/TM (X4)) | IC50 (HIV-1LAI; read-out: MTT assay (IC50, nM), Human CD4+ MT-2 cells, 100 TCID50 of HIV-1LAI, day 7) | IC50 [2]
1 | CC(C)CN(C[C@@H](O)[C@H](Cc1ccccc1)NC(=O)O[C@H]1CCOC1)S(=O)(=O)c1ccc(N)cc1 [APV, Amprenavir] | 36 ± 2 nM | 29 ± 5 nM | 360 ± 90 nM | 250 ± 50 nM | 320 ± 20 nM | 430 ± 50 nM | 480 ± 90 nM | 300 ± 40 nM | 21 ± 6 nM |  |  |  |  |  |  |  |  |  |  | 
2 | COC(=O)N[C@H](C(=O)N[C@@H](Cc1ccccc1)[C@@H](O)CN(Cc1ccc(-c2ccccn2)cc1)NC(=O)[C@@H](NC(=O)OC)C(C)(C)C)C(C)(C)C [ATV, Atazanavir] |  |  | 250 ± 3 nM | 21 ± 6 nM | 32 ± 2 nM | 540 ± 200 nM | 45 ± 0.1 nM | 38 ± 9 nM | 2.7 ± 0.1 nM | 5750 | 4.8 ± 0.1 nM | 3.8 ± 0.4 nM | 66 | 6 | 8 | 142 | 12 | 10 |  | 
3 | CC(C)CN(CC(O)C(Cc1ccccc1)NC(=O)OC1COC2OCCC12)S(=O)(=O)c1ccc2c(c1)OCO2 (stereo not drawn) [GRL-98065] |  |  | 3.9 ± 0.5 nM | 2.7 ± 0.3 nM | 3.4 ± 0.3 nM | 6 nM | 3.8 ± 0.6 nM | 3.2 ± 0.6 nM | 0.3 ± 0.1 nM | 71,400 | ~0.5 nM |  | 8 | 5 | 7 | 12 | 8 | 6 | 0.4 nM | ≤ 6 nM
4 | CC(C)(C)NC(=O)[C@@H]1CN(Cc2cccnc2)CCN1C[C@@H](O)C[C@@H](Cc1ccccc1)C(=O)N[C@H]1c2ccccc2C[C@H]1O [IDV, indinavir] | 48 ± 7 nM | 24 ± 8 nM | > 1000 nM | > 1000 nM | 640 ± 110 nM | > 1000 nM | > 1000 nM | > 1000 nM | 21 ± 1 nM |  |  |  |  |  |  |  |  |  |  | > 1000 nM
5 | Cc1cccc(C)c1OCC(=O)N[C@@H](Cc1ccccc1)[C@@H](O)C[C@H](Cc1ccccc1)NC(=O)[C@H](C(C)C)N1CCCNC1=O [LPV, lopinavir] | 7 ± 1 nM | 7 ± 1 nM |  |  |  |  |  |  | 3.3 ± 0.5 nM |  |  |  |  |  |  |  |  |  |  | 
6 | Cc1c(O)cccc1C(=O)N[C@@H](CSc1ccccc1)[C@H](O)CN1C[C@H]2CCCC[C@H]2C[C@H]1C(=O)NC(C)(C)C [NFV, Nelfinavir] | 32 ± 4 nM |  |  |  |  |  |  |  | 29 ± 4 nM |  |  |  |  |  |  |  |  |  |  | > 1000 nM
7 | CC(C)c1nc(CN(C)C(=O)N[C@H](C(=O)N[C@@H](Cc2ccccc2)C[C@H](O)[C@H](Cc2ccccc2)NC(=O)OCc2cncs2)C(C)C)cs1 [RTV, ritonavir] | 54 ± 1 nM |  |  |  |  |  |  |  | 30 ± 9 nM |  |  |  |  |  |  |  |  |  |  | > 1000 nM
8 | CC(C)(C)NC(=O)[C@@H]1C[C@@H]2CCCC[C@@H]2CN1C[C@@H](O)[C@H](Cc1ccccc1)NC(=O)[C@H](CC(N)=O)NC(=O)c1ccc2ccccc2n1 [SQV, Saquinavir] |  |  | 270 ± 60 nM | 35 ± 4 nM | 33 ± 5 nM | 290 ± 50 nM | 140 ± 40 nM | 180 ± 50 nM | 3 ± 0.1 nM | 2050 | 8 ± 1 nM | 8 ± 3 nM | 34 | 4 | 4 | 36 | 18 | 23 |  | 140 to 290 nM
